Assay [1] has as its target recombinant human HDAC1 (Homo sapiens (Human), UniProt Q13547). The assay can be described thus: Enzymatic screening, HDAC1 inhibition (fluorogenic FdL_G substrate). The format is biochemical. A digest of the protocol:
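Recombinant human HDAC1 inhibition was measured fluorometrically using the FLUOR DE LYS-Green (FdL_G) substrate. Compounds at 8 doses (1% DMSO final) in Tris-HCl pH 8 buffer with NaCl, Tween-20 and glycerol were preincubated in triplicate with enzyme and 1 mg/mL BSA, then given substrate. Developer I plus 2 μM TSA was added, and fluorescence read after 25 minutes in the dark.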

In assay [2] the target is recombinant human HDAC6 (Homo sapiens (Human), UniProt Q9UBN7). The assay can be described thus: Enzymatic screening, HDAC6 inhibition (fluorogenic FdL_G substrate). The format is biochemical. Put shortly: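 Enzyme was preincubated with compound (8 doses, triplicate, 1% DMSO) in 25 mM Tris-HCl pH 8, 130 mM NaCl, 0.05% Tween-20, 10% glycerol, with BSA. A FLUOR DE LYS-Green substrate was then added, and fluorescence was read after developer plus 2 μM TSA.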
recombinant human HDAC6, sequence (Q9UBN7 whole entry): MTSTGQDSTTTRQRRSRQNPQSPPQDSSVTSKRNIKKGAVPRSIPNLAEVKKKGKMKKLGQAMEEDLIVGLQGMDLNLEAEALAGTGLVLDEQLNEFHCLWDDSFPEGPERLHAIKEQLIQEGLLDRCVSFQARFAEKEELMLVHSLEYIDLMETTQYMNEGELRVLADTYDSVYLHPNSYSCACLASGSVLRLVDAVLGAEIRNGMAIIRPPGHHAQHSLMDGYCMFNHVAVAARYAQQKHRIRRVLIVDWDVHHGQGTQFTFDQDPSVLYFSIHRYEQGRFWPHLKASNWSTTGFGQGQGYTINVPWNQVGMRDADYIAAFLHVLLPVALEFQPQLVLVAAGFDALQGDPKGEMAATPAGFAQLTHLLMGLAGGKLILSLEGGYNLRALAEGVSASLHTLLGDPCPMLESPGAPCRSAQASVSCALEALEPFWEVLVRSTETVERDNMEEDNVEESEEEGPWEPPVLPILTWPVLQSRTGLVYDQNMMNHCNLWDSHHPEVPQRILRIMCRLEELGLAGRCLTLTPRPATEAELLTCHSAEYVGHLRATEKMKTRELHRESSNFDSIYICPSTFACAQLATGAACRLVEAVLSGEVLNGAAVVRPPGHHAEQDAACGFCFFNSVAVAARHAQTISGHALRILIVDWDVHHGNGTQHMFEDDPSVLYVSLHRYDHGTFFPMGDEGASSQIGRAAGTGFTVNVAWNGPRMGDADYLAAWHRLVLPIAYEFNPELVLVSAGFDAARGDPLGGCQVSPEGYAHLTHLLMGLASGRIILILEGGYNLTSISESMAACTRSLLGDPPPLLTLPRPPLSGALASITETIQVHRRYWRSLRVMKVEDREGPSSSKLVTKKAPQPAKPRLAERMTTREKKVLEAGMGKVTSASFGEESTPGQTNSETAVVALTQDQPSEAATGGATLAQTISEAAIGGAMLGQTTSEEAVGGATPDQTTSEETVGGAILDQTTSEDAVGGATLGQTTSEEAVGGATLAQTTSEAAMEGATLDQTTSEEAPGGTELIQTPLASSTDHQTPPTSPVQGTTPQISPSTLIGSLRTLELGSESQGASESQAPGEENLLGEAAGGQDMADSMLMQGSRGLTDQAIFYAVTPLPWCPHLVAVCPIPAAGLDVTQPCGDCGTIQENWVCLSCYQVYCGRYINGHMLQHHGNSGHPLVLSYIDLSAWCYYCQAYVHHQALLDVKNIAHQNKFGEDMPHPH

The structures appear in SMILES notation. pIC50: −log10 of the molar value.

recombinant human HDAC1, sequence (Q13547 whole entry): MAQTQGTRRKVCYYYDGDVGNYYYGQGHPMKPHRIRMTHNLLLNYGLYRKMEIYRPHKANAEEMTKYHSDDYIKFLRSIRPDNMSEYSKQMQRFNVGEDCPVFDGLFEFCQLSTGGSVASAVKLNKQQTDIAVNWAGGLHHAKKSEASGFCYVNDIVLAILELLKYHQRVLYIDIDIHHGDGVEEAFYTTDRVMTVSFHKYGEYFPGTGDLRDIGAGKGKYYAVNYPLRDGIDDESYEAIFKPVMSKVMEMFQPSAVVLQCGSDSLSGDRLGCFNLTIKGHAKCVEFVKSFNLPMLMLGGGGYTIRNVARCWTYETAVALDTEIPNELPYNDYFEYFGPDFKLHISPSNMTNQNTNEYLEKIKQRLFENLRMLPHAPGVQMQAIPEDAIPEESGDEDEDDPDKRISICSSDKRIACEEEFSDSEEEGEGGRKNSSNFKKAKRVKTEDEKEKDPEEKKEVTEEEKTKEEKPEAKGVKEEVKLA

What is called pIC50 is −log10 of the IC50, conventionally taken in molar units. As to `O=C(c1ccc(-c2nnn(Cc3ccc(-c4nnc(C(F)F)o4)cc3)n2)cc1)N1CCOCC1` [compound 230, (4-(2-(4-(5-(difluoromethyl)-1,3,4-oxadiazol-2-yl)benzyl)-2H-tetrazol-5-yl)phenyl)(morpholino)methanone], the results for the pIC50 in assay [1] and in assay [2] were under 3.70 and 6.73, respectively.
In the same order, the values of `O=C1NCc2ccc(-c3nnn(Cc4ccc(-c5nnc(C(F)F)o5)cc4F)n3)cc21` [compound 40, 6-(2-(4-(5-(difluoromethyl)-1,3,4-oxadiazol-2-yl)-2-fluorobenzyl)-2H-tetrazol-5-yl)isoindolin-1-one] are under 3.70 and 7.72.
`Nc1ccc(-c2cn(C(Cc3ccccc3)c3ccc(-c4nnc(C(F)F)o4)cc3)nn2)cn1` (stereo not shown) [compound 221, 5-(1-(1-(4-(5-(difluoromethyl)-1,3,4-oxadiazol-2-yl)phenyl)-2-phenylethyl)-1H-1,2,3-triazol-4-yl)pyridin-2-amine]: the pIC50 in assay [1] is under 3.70; in assay [2] it was 6.80.
Turning to `Nc1ccc(-c2cn([C@@H](CO)c3ccc(-c4nnc(C(F)F)o4)cc3)nn2)cn1` [compound 314, (2R)-2-[4-(6-aminopyridin-3-yl)triazol-1-yl]-2-[4-[5-(difluoromethyl)-1,3,4-oxadiazol-2-yl]phenyl]ethanol], the figures for the pIC50 in assay [1] and in assay [2] were under 3.00 and 7.66, respectively.
Regarding `O=C(Nc1cccc(-c2cn(Cc3ncc(-c4nnc(C(F)F)o4)cc3F)nn2)c1)N1CCOCC1` [compound 336, N-[3-[1-[[5-[5-(difluoromethyl)-1,3,4-oxadiazol-2-yl]-3-fluoropyridin-2-yl]methyl]triazol-4-yl]phenyl]morpholine-4-carboxamide], the figures for the negative logarithm of the IC50 (pIC50) in assay [1] and in assay [2] were under 3.00 and 7.24, respectively.
For `CN(Cc1ccc(-c2nc(Cc3ccc(-c4nnc(C(F)F)o4)cc3)no2)cc1)C(=O)C(F)F` [compound 259, N-(4-(3-(4-(5-(difluoromethyl)-1,3,4-oxadiazol-2-yl)benzyl)-1,2,4-oxadiazol-5-yl)benzyl)-2,2-difluoro-N-methylacetamide], the pIC50 is under 3.70 in assay [1] and 6.36 in assay [2].
As for `FC(F)c1nnc(-c2ccc(Cn3nnnc3-c3cccc(-n4cccn4)c3)cc2)o1` [compound 289, 2-(4-((5-(3-(1H-pyrazol-1-yl)phenyl)-1H-tetrazol-1-yl)methyl)phenyl)-5-(difluoromethyl)-1,3,4-oxadiazole], the negative-log IC50 (pIC50) in assay [1] was under 3.70; in assay [2], 6.69.
As for `Cn1c(N)nc2cc(-c3cnn(Cc4ccc(-c5nnc(C(F)F)o5)cc4)c3)ccc21` [compound 321, 5-[1-[[4-[5-(difluoromethyl)-1,3,4-oxadiazol-2-yl]phenyl]methyl]pyrazol-4-yl]-1-methylbenzimidazol-2-amine], the negative logarithm of the IC50 (pIC50) was under 3.00 in assay [1] and 7.01 in assay [2].
`O=C(Nc1cncc(-c2nnn(Cc3ccc(-c4nnc(C(F)F)o4)cc3)n2)c1)N1CCOCC1` [compound 199, N-(5-(2-(4-(5-(difluoromethyl)-1,3,4-oxadiazol-2-yl)benzyl)-2H-tetrazol-5-yl)pyridin-3-yl)morpholine-4-carboxamide]: the negative logarithm of the IC50 (pIC50) in assay [1] was under 3.70; in assay [2], 6.96.
With `FC(F)c1nnc(-c2ccc(Cn3cc(-c4cnc5cccnn45)nn3)nc2)o1` [compound 74, 2-(difluoromethyl)-5-(6-((4-(imidazo[1,2-b]pyridazin-3-yl)-1H-1,2,3-triazol-1-yl)methyl)pyridin-3-yl)-1,3,4-oxadiazole], the pIC50 is under 3.70 in assay [1] and 7.51 in assay [2].
Take `Nc1nc2ccc(-n3cc(Cc4ccc(-c5nnc(C(F)F)o5)cc4)nn3)cc2s1` [compd. 377, 6-[4-[[4-[5-(difluoromethyl)-1,3,4-oxadiazol-2-yl]phenyl]methyl]triazol-1-yl]-1,3-benzothiazol-2-amine]: the values for the pIC50 in assay [1] and in assay [2] were under 3.00 and 6.43, respectively.
In the same order, the values of `Nc1ccc(-c2cn(C(CCCN3CCCCC3)c3ccc(-c4nnc(C(F)F)o4)cc3)nn2)cn1` (stereo not shown) [compound 303, 5-[1-[1-[4-[5-(difluoromethyl)-1,3,4-oxadiazol-2-yl]phenyl]-4-piperidin-1-ylbutyl]triazol-4-yl]pyridin-2-amine] are under 3.00 and 7.21.
With `CC[C@H](c1ccc(-c2nnc(C(F)F)o2)cc1)n1cc(-c2cccc(NC(=O)N3CCOCC3)c2)nn1` (stereo in doubt) [compound 184, N-(3-(1-(1-(4-(5-(difluoromethyl)-1,3,4-oxadiazol-2-yl)phenyl)propyl)-1H-1,2,3-triazol-4-yl)phenyl)morpholine-4-carboxamide], the results for the negative-log IC50 (pIC50) in assay [1] and in assay [2] were under 3.70 and 7.02, respectively.
For `Nc1nc2cc(-c3cn(Cc4ccc(-c5nnc(C(F)F)o5)cc4)cn3)ccc2o1` [compd. 309, 5-[1-[[4-[5-(difluoromethyl)-1,3,4-oxadiazol-2-yl]phenyl]methyl]imidazol-4-yl]-1,3-benzoxazol-2-amine] the same measures were under 3.00 and 7.16.
For `Nc1ccc(-c2cn(C(CCNC(=O)C(F)F)c3ccc(-c4nnc(C(F)F)o4)cn3)nn2)cn1` (stereo not shown) [compd. 295, N-(3-(4-(6-aminopyridin-3-yl)-1H-1,2,3-triazol-1-yl)-3-(5-(5-(difluoromethyl)-1,3,4-oxadiazol-2-yl)pyridin-2-yl)propyl)-2,2-difluoroacetamide] the same measures were under 3.70 and 7.49.
In the same order, the values of `O=C1Nc2ccc(-c3nnn(Cc4ccc(-c5nnc(C(F)F)o5)cc4)n3)cc2NC12CCCC2` [compound 110, 7′-(2-(4-(5-(difluoromethyl)-1,3,4-oxadiazol-2-yl)benzyl)-2H-tetrazol-5-yl)-1′,4′-dihydro-3′H-spiro[cyclopentane-1,2′-quinoxalin]-3′-one] are under 3.70 and 7.38.
As to `Nc1ncnc2sc(-c3cn(Cc4ccc(-c5nnc(C(F)F)o5)cc4F)nn3)cc12` [compound 416, 6-[1-({4-[5-(difluoromethyl)-1,3,4-oxadiazol-2-yl]-2-fluorophenyl}methyl)-1H-1,2,3-triazol-4-yl]thieno[2,3-d]pyrimidin-4-amine], the figures for the pIC50 in assay [1] and in assay [2] were 3.00 and 7.34, respectively.
In the same order, the values of `Fc1cc(-c2nnn(Cc3ccc(-c4nnc(C(F)F)o4)cc3)n2)ccc1N1CCNCC1` [compound 224, 2-(difluoromethyl)-5-(4-((5-(3-fluoro-4-(piperazin-1-yl)phenyl)-2H-tetrazol-2-yl)methyl)phenyl)-1,3,4-oxadiazole] are under 3.70 and 6.79.
For `O=C(c1cccc(-c2nnn(Cc3ccc(-c4nnc(C(F)F)o4)cc3)n2)c1)N1CCOCC1` [compound 120, (3-(2-(4-(5-(difluoromethyl)-1,3,4-oxadiazol-2-yl)benzyl)-2H-tetrazol-5-yl)phenyl)(morpholino)methanone] the same measures were under 3.70 and 7.35.
`CC(c1ccc(-c2nnc(C(F)F)o2)cc1)n1nnc(-c2ccc3c(c2)C(=O)N(C)CC3)n1` (stereo not shown) [compound 229, 7-(2-(1-(4-(5-(difluoromethyl)-1,3,4-oxadiazol-2-yl)phenyl)ethyl)-2H-tetrazol-5-yl)-2-methyl-3,4-dihydroisoquinolin-1 (2H)-one]: the pIC50 in assay [1] was under 3.70; in assay [2], 6.75.

(Values after US20230286970A1, “NOVEL OXADIAZOLE-BASED SELECTIVE HDAC6 INHIBITORS” (ITALFARMACO S.P.A., priority 2020, published 2023).)
